From patent publication US6979664B1, “Composition for accelerating seed germination and plant growth” (Bios Agriculture Inc., priority 1998, dated 2005)
Where “and” joins values, the source holds several entries; their conditions need not be identical. Equal entries are not always repeated.

Columns and labels:
Type in all cases: in vivo
[1] = tested on: potato microtubers; experiment: sprouting of microtubers cold-stored 3 weeks, dormancy-breaking agents incl. anti-ABA; details: evaluated at 2 weeks
Description: Microtubers (200–600 mg) were cold-stored for 3 wk prior to the experiment. Seven microtubers were used per treatment. Treatments included 24 h soaks in anti-ABA or GA3 (500 and 250 mg l^−1, respectively) applied alone or in combination, GA3 (500 mg l^−1 in combination with 100% signal solution, and water. Bromoethane (0.2 ml l^−1) and control treatments were also performed. Observations were made after 2 wk in the dark at room temperature (20° C.). Data included number of sprouted microtubers and number of multiple sprouts. Means of sprout number were calculated only from microtubers that had sprouted.

[2] = tested on: potato minitubers; experiment: harvests after 60 d from minitubers forced to break dormancy (greenhouse pots); details: GA3 500 mg l^−1 / 100% signal solution / BE 0.2 m l^−1; for Mean number of tubers produced per replicate / Mean fresh weight: harvest after 60 d; for Mean number sprouts at planting ± SE: minitubers cold-stored 8 wk, 3 wk after treatment; for Mean fresh weight: tubers per replicate (pot)
Description: Minitubers (20–35 g) that were cold-stored for 8 wk were given dormancy-releasing treatments including 24 h soaking in GA3 (500 mg l^−1), 100% signal solution, or water. Other treatments included BE (0.2 m l^−1), cutting in half, and the control. […] Five minitubers per treatment were individually planted into 11×12 cm plastic pots in the greenhouse. The potting mixture was 2:1 peat:perlite without fertilizer added. The pots were arranged in a complete randomized design and watered equally every alternate day. Harvest occurred after 60 d and tuber yields (number and fresh weight) were recorded.

[3] = tested on: potato minitubers; experiment: sprouting and multiple sprouting of minitubers cold-stored 0, 2 or 8 wk; details: for Sprouting (number of sprouted tubers): GA3 500 mg l^−1 / 100% signal solution / Bromoethane 0.2 ml l^−1; for number of tubers with multiple sprouts: six tubers per treatment, doses as title
Description: (§1) Microtubers (200–500 mg) cold-stored for 8 wk and minitubers (20–35 g) cold-stored for 0, 2, or 8 wk were used for these experiments. BE (0.2 ml l^−1) and mechanical injury (cutting in half, microwaving at full power for 10 sec) were compared with GA3 (500 mgl^−1), 100% signal solution, water soaking, and control treatments. Six microtubers or minitubers were used per treatment. Observations were made at 1, 2, 3, and 4 wk intervals and the number of sprouted tubers were counted. The evaluation period was extended because tubers with little or no cold storage treatment took longer to sprout.

[4] = tested on: potato microtubers; experiment: sprouting and multiple sprouting of microtubers cold-stored 8 wk; details: Microtuber (CS8W); for Sprouting (number of sprouted tubers): GA3 500 mg l^−1 / 100% signal solution / Bromoethane 0.2 ml l^−1
Description: as §1

[5] = tested on: potato minitubers; experiment: GA3 and 100% signal solution, dormancy breaking of minitubers cold-stored 3 weeks
Description: Minitubers (20–30 g) with 3 wk cold storage treatment were soaked for 24 h in 500 mg l^−1 GA3, 100% signal solution, or a mixture of the two. Another treatment involved successive soaking for 12 h each, in first GA3, and then signal solution. A control treatment without soaking was also performed. Eight minitubers were used per treatment which were applied at room temperature (20° C.). […] were observed after 2 wk and the number of sprouted minitubers and the number with multiple sprouts were counted.

[6] = tested on: potato microtubers; experiment: dormancy breaking of potato microtubers cold-stored 8 wk; details: GA3 500 mgl^−1
Description: Treatments were carried out on microtubers (200–400 mg) that had been cold-stored for 8 wk to determine their effect on breaking dormancy. Signal solution was used at full strength (100%) or diluted to 20% (as for soybean), 12%, or 6% of full strength. GA3 (500 mg l^−1), water soaking, and control treatments were performed for comparison purposes. Microtuber soaking treatments lasted 24 h and then incubation occurred either in the light (40 μmol m^−2s^−1 cool-white fluorescent) or in the dark. Five microtubers were used in each treatment. Observations for sprouted microtubers were made at 1 and 2 wk.
One hundred % signal solution was as effective as GA3 (500 mg l^−1) when evaluated after 1 wk with respect to the number of sprouted microtubers. […] One hundred % signal solution induced multiple sprouts and dark incubation favoured sprouting as compared with the light regime after 1 wk of incubation. The exact cause of dark incubation favouring 100% signal solution is not understood.

[7] = tested on: alfalfa (Medicago sativa); experiment: germination of alfalfa seeds (petri plate); details: after 24 h of treatment
Description: Following the methods described above, the LCO most abundantly produced by R. meliloti (Nod Rm-V(C16:2, S)) was isolated and tested on alfalfa (Medicago sativa) seeds. Briefly, 10 seeds were placed in a disk of filter paper on a petri plate. The filter paper was wetted with 5 ml of the appropriate LCO solution. Data were taken at 12 hour intervals upon the radicle (an embryonic root). The number of seed with an emerged radicle were counted. Each treatment was repeated four times. The data presented in table 9 indicate a clear acceleration of growth. In this case no standard for HPLC calibration was available, so a relative dilution series was used. […] In each case, a stimulation of seed germination was observed. Of note, Rhizobium leguminosarum produces a large number of LCOs.

[8] = single agent 24 h soak (GA3 500 mgl^−1 or 100% SS), after 2 wk

CCBr [Bromoethane]
Mean No. sprouts ± SE ([1]; Bromoethane (0.2 ml l^−1)): 1.0 ± 0
No. sprouted microtubers ([1]; Bromoethane (0.2 ml l^−1)): 1/7
Mean number of tubers produced per replicate [2]: 2.0
Mean number sprouts at planting ± SE [2]: 1.8 ± 0.20
Mean number sprouts at planting ± SE ([2]; listed as BE): 1.8±0.2
Mean fresh weight [2]: 14.01 g·days
Sprouting (number of sprouted tubers) ([3]; Minituber (CS2W), 1 wk): 0
Sprouting (number of sprouted tubers) ([3]; Minituber (CS2W), 2 wk): 0
Sprouting (number of sprouted tubers) ([3]; Minituber (CS2W), 3 wk): 0
Sprouting (number of sprouted tubers) ([3]; Minituber (CS2W), 4 wk): 2/6
Sprouting (number of sprouted tubers) ([3]; Minituber (CS8W), 1 wk): 3/6
Sprouting (number of sprouted tubers) ([3]; Minituber (CS8W), 2 wk): 4/6
number of tubers with multiple sprouts ([3]; Minituber (CS8W), 2 wk): (1)
number of tubers with multiple sprouts ([3]; Minituber (CS8W), 2 wk, listed as BE): 1/6
Sprouting (number of sprouted tubers) ([3]; Minituber (CS8W), 3 wk): 6/6
number of tubers with multiple sprouts ([3]; Minituber (CS8W), 3 wk): (4)
Sprouting (number of sprouted tubers) ([3]; Minituber (CS8W), 4 wk): 6/6
number of tubers with multiple sprouts ([3]; Minituber (CS8W), 4 wk): (4)
Sprouting (number of sprouted tubers) ([3]; Minituber (NCS), 1 wk): 0
Sprouting (number of sprouted tubers) ([3]; Minituber (NCS), 2 wk): 0
Sprouting (number of sprouted tubers) ([3]; Minituber (NCS), 3 wk): 0
Sprouting (number of sprouted tubers) ([3]; Minituber (NCS), 4 wk): 0
Sprouting (number of sprouted tubers) ([4]; 1 wk): 2/6
Sprouting (number of sprouted tubers) ([4]; 2 wk): 4/6
Sprouting (number of sprouted tubers) ([4]; 3 wk): 4/6
Sprouting (number of sprouted tubers) ([4]; 4 wk): 6/6

C=C1C[C@]23C[C@@]1(O)CC[C@H]2[C@@]12C=C[C@H](O)[C@@](C)(C(=O)O1)[C@H]2[C@@H]3C(=O)O [GA3, gibberellic acid]
sprouting ([5]; 24 h soak, GA3 500 mg l^−1 alone or together with 100% signal solution, 2 wk): 100%
Mean number of sprouts ± SE [5, 8]: 3.37 ± 0.62
Number of minituber with multiple sprouts [5, 8]: 6/8
Number of sprouted minituber [5, 8]: 8/8
Mean No. sprouts ± SE ([1]; GA3 500 mgl^−1 24 h): 1.71±0.28
No. sprouted microtubers ([1]; GA3 500 mgl^−1 24 h): 7/7
Mean number of tubers produced per replicate [2]: 3.6
Mean number sprouts at planting ± SE [2]: 4.2±0.37
Mean fresh weight [2]: 11.13 g·days
Sprouting (number of sprouted tubers) ([3]; Minituber (CS2W), 1 wk): 0
Sprouting (number of sprouted tubers) ([3]; Minituber (CS2W), 2 wk): 0/6 and 0
Sprouting (number of sprouted tubers) ([3]; Minituber (CS2W), 3 wk): 3/6
Sprouting (number of sprouted tubers) ([3]; Minituber (CS2W), 4 wk): 5/6
number of tubers with multiple sprouts ([3]; Minituber (CS2W), 4 wk): (2)
Sprouting (number of sprouted tubers) ([3]; Minituber (CS8W), 1 wk): 5/6
Sprouting (number of sprouted tubers) ([3]; Minituber (CS8W), 2 wk): 6/6
Sprouting (number of sprouted tubers) ([3]; Minituber (CS8W), 3 wk): 6/6
number of tubers with multiple sprouts ([3]; Minituber (CS8W), 3 wk): (6)
Sprouting (number of sprouted tubers) ([3]; Minituber (CS8W), 4 wk): 6/6
number of tubers with multiple sprouts ([3]; Minituber (CS8W), 4 wk): (6)
Sprouting (number of sprouted tubers) ([3]; Minituber (NCS), 1 wk): 0
Sprouting (number of sprouted tubers) ([3]; Minituber (NCS), 2 wk): 0/6 and 0
Sprouting (number of sprouted tubers) ([3]; Minituber (NCS), 3 wk): 3/6
Sprouting (number of sprouted tubers) ([3]; Minituber (NCS), 4 wk): 4/6
Mean number of sprouts ± SE ([6]; + light): 2.5 ± 0.5
Number of multiple sprouted microtubers (2 wk) ([6]; + light): 2/5
Number of sprouted microtubers ([6]; + light, 1 wk): 1/5
Number of sprouted microtubers ([6]; + light, 2 wk): 5/5
Mean number of sprouts ± SE ([6]; − light): 2.5 ± 0.3
Number of multiple sprouted microtubers (2 wk) ([6]; − light): 4/5
Number of sprouted microtubers ([6]; − light, 1 wk): 5/5
Number of sprouted microtubers ([6]; − light, 2 wk): 5/5
Sprouting (number of sprouted tubers) ([4]; 1 wk): 4/6
Sprouting (number of sprouted tubers) ([4]; 2 wk): 5/6
Sprouting (number of sprouted tubers) ([4]; 3 wk): 6/6
number of tubers with multiple sprouts ([4]; 3 wk, six tubers per treatment, doses as title): (3)
Sprouting (number of sprouted tubers) ([4]; 4 wk): 6/6

CCCCCC/C=C\CCCCC/C=C/C(=O)N[C@H]1[C@H](O[C@H]2[C@H](O)[C@@H](NC(C)=O)[C@H](O[C@H]3[C@H](O)[C@@H](NC(C)=O)[C@H](O[C@H]4[C@H](O)[C@@H](NC(C)=O)[C@H](O[C@H]5[C@H](O)[C@@H](NC(C)=O)C(O)O[C@@H]5COS(=O)(=O)O)O[C@@H]4CO)O[C@@H]3CO)O[C@@H]2CO)O[C@H](CO)[C@@H](O)[C@@H]1O (stereo partly drawn) [Nod Rm-V(C16:2, S)]
Percent germination ([7]; 10^−1 dilution): 26.6 ab Percent
Percent germination ([7]; 10^−2 dilution): 26.6 ab Percent
Percent germination ([7]; 10^−3 dilution): 36.6 a Percent
